One assay concerns the target T1, Human FPR2 (Homo sapiens, UniProt P25090).
T1 construct: expressed in transfected cells; host or cells: CHO-A12
T1 sequence (P25090 1-351): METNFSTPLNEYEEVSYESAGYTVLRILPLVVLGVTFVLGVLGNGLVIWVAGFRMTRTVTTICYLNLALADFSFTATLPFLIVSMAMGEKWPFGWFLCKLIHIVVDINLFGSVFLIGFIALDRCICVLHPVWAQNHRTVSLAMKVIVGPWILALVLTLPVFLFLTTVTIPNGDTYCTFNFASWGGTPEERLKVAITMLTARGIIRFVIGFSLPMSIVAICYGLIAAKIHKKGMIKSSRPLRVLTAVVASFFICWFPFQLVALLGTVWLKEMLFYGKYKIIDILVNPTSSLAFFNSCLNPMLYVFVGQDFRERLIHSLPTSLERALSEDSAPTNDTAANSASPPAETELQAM
The assay can be described thus: FPR2 cAMP assay (cAMP inhibition). The assay is classed as cell-based. Here is the method: A mixture of forskolin (5 μM final for FPR2 or 10 μM final for FPR1) and IBMX (200 μM final) were added to 384-well Proxiplates (Perkin-Elmer) pre-dotted with test compounds in DMSO (1% final) at final concentrations in the range of 0.1 nM to 10 μM. CHO overexpressing human FPR1 or human FPR2 receptors were cultured in F-12 (Ham's) medium supplemented with 10% qualified FBS, 250 μg/ml zeocin and 300 μg/ml hygromycin (Life Technologies). Reactions were initiated by adding 2,000 human FPR2 cells per well or 4,000 human FPR1 cells per well in Dulbecco's PBS (with calcium and magnesium) (Life Technologies) supplemented with 0.1% BSA (Perkin-Elmer). The reaction mixtures were incubated for 30 min at room temperature. The level of intracellular cAMP was determined using the HTRF HiRange cAMP assay reagent kit (Cisbio) according to manufacturer's instruction. Solutions of cryptate conjugated anti-cAMP and d2 flurorophore-labelled cAMP were made in a supplied lysis buffer separately. […] After a 1 h room temperature incubation, time-resolved fluorescence intensity was measured using the Envision (Perkin-Elmer) at 400 nm excitation and dual emission at 590 nm and 665 nm. […] The potency and activity of Compound 1 to inhibit cAMP production was then determined by fitting to a 4-parametric logistic equation from a plot of cAMP level versus compound concentrations. […]

In another assay the target is T2, Mouse FPR1 (Mus musculus, UniProt P33766).
T2 construct: expressed in transfected cells
T2 sequence (P33766 1-364): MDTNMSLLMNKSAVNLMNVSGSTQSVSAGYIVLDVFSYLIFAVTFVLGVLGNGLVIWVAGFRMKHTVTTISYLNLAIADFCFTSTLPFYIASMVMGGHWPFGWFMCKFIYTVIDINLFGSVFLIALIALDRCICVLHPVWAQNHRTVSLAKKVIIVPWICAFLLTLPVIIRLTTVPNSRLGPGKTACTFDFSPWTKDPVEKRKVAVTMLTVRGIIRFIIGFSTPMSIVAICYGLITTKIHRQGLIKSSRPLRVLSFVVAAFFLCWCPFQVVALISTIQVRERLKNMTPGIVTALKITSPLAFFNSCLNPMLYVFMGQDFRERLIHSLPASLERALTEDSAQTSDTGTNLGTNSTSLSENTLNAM
The assay can be described thus: cAMP inhibition, mouse FPR1/CHO-A12. The format is cell-based.

The next assay addresses T3, Rat FPR1 (Rattus norvegicus, UniProt D4A7Q2).
T3 construct: expressed in transfected cells; host or cells: CHO
T3 sequence (D4A7Q2 1-355): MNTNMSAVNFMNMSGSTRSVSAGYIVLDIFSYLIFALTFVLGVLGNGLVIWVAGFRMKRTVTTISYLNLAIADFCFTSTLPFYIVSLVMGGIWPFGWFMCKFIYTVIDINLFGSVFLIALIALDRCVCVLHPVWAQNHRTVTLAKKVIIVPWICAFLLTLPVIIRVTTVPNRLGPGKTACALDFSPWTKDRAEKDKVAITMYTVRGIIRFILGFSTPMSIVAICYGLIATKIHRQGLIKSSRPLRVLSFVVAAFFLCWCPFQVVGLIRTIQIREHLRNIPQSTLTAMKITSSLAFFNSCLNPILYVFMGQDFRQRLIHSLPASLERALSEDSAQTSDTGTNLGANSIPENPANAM
Nature of the assay: cAMP inhibition, rat FPR1 CHO cells. The format is cell-based.

Assay [1] relates to angiotensin II-induced cardiac fibrosis in mice. Nature of the assay: Angiotensin II-induced cardiac fibrosis mouse model. The format is in vivo. The conditions noted are these: 3 mg/kg QD for 3 weeks, P<0.001. As to the method: To assess myocardial fibrosis in the setting of non-ischemic heart disease with hypertension, mice were challenged with angiotensin II to stimulate cardiac hypertrophy and left ventricular fibrosis. Mice were administered angiotensin II using subcutaneously implanted osmotic mini-pumps (˜2 mg/kg/day). A separate group of mice were implanted with subcutaneous pumps containing saline (surgical “sham” group); these mice served as control for pump implantation surgery. Mice were treated with Compound 1 (3 mg/kg, QD) or dosing solution without compound (QD, referred to as vehicle) starting 7 days following pump implantation. In this model, cardiac fibrosis development reaches its peak and without treatment, will remain fibrotic at this high level until the angII is depleted (˜4 weeks post implantation). Interventional treatment with Compound 1 to regress cardiac fibrosis was given to mice for 3 weeks. At the end of treatment phase, hearts were removed from animals and evaluated for collagen levels/fibrosis by cross-sectional histology of the hearts.
Myocardial fibrosis was evaluated in the mouse with continuous angiotensin II challenge administered by subcutaneous osmotic mini-pump. This is a model of non-ischemic heart disease.
The effect of Compound 1 on regression of established cardiac fibrosis was evaluated in the angiotensin II-induced cardiac fibrosis mouse model. […]

Where “and” joins values, the source holds several entries; their conditions need not be identical. Identical values can stand only once.

`COc1cc(F)c([C@@H]2CNC(=O)[C@H]2NC(=O)Nc2ccccc2)c(F)c1` [Compound 1, 1-((3S,4R)-4-(2,6-difluoro-4-methoxyphenyl)-2-oxopyrrolidin-3-yl)-3-phenylurea]: the “selectivity for human FPR2 vs. FPR1” value on Human FPR2 (CHO cell lines, cAMP) amounted to 446 fold. For the same compound, the concentration giving a half-maximal response (EC50) was 2.8 nM on Human FPR2 (Human FPR2/CHO-A12); ~384 nM and 384 nM on Mouse FPR1; 720 nM at Rat FPR1. For the same compound, in assay [1] (started 7 days after pump implantation), the “reduction of left ventricular fibrosis vs. vehicle treatment group” value came out at 90%. Moreover, the “reduction of fibrosis relative to 7-day baseline group” value in assay [1] was 89%.

By EC50 is commonly meant the concentration needed to bring the measured effect to its halfway point. Higher therefore signals weaker potency.
